{"source": "paper PMC8651387", "about": "“Synthesis and Evaluation of the Acetylcholinesterase Inhibitory Activities of Some Flavonoids Derived from Naringenin” (The Scientific World Journal, 2021)", "key": {"AChE": {"target": "AChE (Homo sapiens, UniProt P22303)", "sequence (P22303 32-614)": "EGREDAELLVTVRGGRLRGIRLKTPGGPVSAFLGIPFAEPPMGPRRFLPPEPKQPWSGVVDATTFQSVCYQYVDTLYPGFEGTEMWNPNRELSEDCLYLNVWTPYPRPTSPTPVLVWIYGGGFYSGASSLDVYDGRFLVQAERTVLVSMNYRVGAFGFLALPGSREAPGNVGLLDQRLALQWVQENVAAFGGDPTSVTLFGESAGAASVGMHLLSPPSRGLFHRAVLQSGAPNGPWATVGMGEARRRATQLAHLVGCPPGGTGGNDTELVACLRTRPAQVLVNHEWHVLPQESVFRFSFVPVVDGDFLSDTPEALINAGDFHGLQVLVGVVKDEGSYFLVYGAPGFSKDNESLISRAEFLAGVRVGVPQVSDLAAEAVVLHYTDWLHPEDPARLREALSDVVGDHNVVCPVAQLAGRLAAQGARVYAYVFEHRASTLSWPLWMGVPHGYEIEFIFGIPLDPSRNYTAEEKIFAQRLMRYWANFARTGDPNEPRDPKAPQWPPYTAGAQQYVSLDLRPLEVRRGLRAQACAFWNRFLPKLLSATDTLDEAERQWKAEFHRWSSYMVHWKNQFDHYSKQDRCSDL", "experiment": "biochemical", "conditions": "for IC50: pH 8, 25°C, triplicate"}, "[1]": {"experiment": "Solubility in water and solvents (compound description)"}, "[2]": {"conditions": "AChE 0.25 UI/mL, read-out: IC50"}}, "note": "“And” between values parts separate entries of the source, which are not always exact repeats. Identical values can stand only once. Like-named read-outs stand apart in the source and are kept apart here.", "data": [{"smiles": "O=C1C[C@@H](c2ccc(O)cc2)Oc2cc(O)cc(O)c21", "note": "[Naringenin]", "values": [{"measurement": "IC50", "setting": "AChE; IC50, AChE 0.25 UI/mL", "value": "150 ± 4.6", "unit": "µM"}]}, {"smiles": "COc1ccc(C2CC(=O)c3c(O)cc(OC)cc3O2)cc1", "note": "(stereo not drawn) [Compound 2, 5-Hydroxy-4′,7-dimethoxyflavanone]", "values": [{"measurement": "Solubility in acetone", "setting": "[1]", "value": "soluble"}, {"measurement": "Solubility in dichloromethane", "setting": "[1]", "value": "highly soluble"}, {"measurement": "Solubility in methanol", "setting": "[1]", "value": "sparingly soluble"}, {"measurement": "Solubility in water", "setting": "[1]", "value": "insoluble"}, {"measurement": "AChE inhibitory activity (in words)", "setting": "AChE", "value": "improved activities over naringenin"}, {"measurement": "IC50", "setting": "AChE; [2]", "value": "< 100 µM and 75 µM"}]}, {"smiles": "COc1cc(O)c2c(c1)OC(c1ccc(O)cc1)CC2=O", "note": "(stereo not drawn) [Compound 1, 4′,5-Dihydroxy-7-methoxyflavanone]", "values": [{"measurement": "IC50", "setting": "AChE; IC50, AChE 0.25 UI/mL", "value": "> 100", "unit": "µM"}]}, {"smiles": "CCOc1ccc(/C=C/C(=O)c2c(O)cc(OCC)cc2OCC)cc1", "note": "[Compound 4, (E)-2′,4,4′-Triethoxy-6′-hydroxychalcone]", "values": [{"measurement": "Solubility in acetone", "setting": "[1]", "value": "soluble"}, {"measurement": "Solubility in dichloromethane", "setting": "[1]", "value": "highly soluble"}, {"measurement": "Solubility in methanol", "setting": "[1]", "value": "slightly soluble"}, {"measurement": "Solubility in water", "setting": "[1]", "value": "insoluble"}, {"measurement": "AChE inhibitory activity (in words)", "setting": "AChE", "value": "improved activities over naringenin"}, {"measurement": "IC50", "setting": "AChE; [2]", "value": "< 100 µM and 39.8 µM"}]}, {"smiles": "C=CCOc1cc(O)c2c(c1)OC(c1ccc(O)cc1)CC2=O", "note": "(stereo not drawn) [Compound 5, 7-Allyloxy-4′,5-dihydroxyflavanone]", "values": [{"measurement": "Solubility in acetone", "setting": "[1]", "value": "highly soluble"}, {"measurement": "Solubility in dichloromethane", "setting": "[1]", "value": "sparingly soluble"}, {"measurement": "Solubility in methanol", "setting": "[1]", "value": "sparingly soluble"}, {"measurement": "Solubility in water", "setting": "[1]", "value": "insoluble"}, {"measurement": "AChE inhibitory activity (in words)", "setting": "AChE", "value": "improved activities over naringenin"}, {"measurement": "IC50", "setting": "AChE; [2]", "value": "< 100 µM and 48.4 µM"}]}, {"smiles": "COc1ccc(/C=C/C(=O)c2c(OC)cc(OC)cc2OC)cc1", "note": "[Compound 3, (E)-2′,4,4′,6′-Tetramethoxychalcone]", "values": [{"measurement": "Solubility in acetone", "setting": "[1]", "value": "soluble"}, {"measurement": "Solubility in dichloromethane", "setting": "[1]", "value": "highly soluble"}, {"measurement": "Solubility in methanol", "setting": "[1]", "value": "sparingly soluble"}, {"measurement": "Solubility in water", "setting": "[1]", "value": "insoluble"}, {"measurement": "IC50", "setting": "AChE; IC50, AChE 0.25 UI/mL", "value": "> 100", "unit": "µM"}]}, {"smiles": "O=C(/C=C/c1ccc(OCc2ccccc2)cc1)c1c(OCc2ccccc2)cc(OCc2ccccc2)cc1OCc1ccccc1", "note": "[Compound 9, (E)-2′,4,4′,6′-Tetrabenzyloxychalcone]", "values": [{"measurement": "Solubility in acetone", "setting": "[1]", "value": "soluble"}, {"measurement": "Solubility in dichloromethane", "setting": "[1]", "value": "highly soluble"}, {"measurement": "Solubility in methanol", "setting": "[1]", "value": "slightly soluble"}, {"measurement": "Solubility in water", "setting": "[1]", "value": "insoluble"}, {"measurement": "AChE inhibitory activity (in words)", "setting": "AChE", "value": "negligible biological effects"}, {"measurement": "IC50", "setting": "AChE; [2]", "value": "> 100", "unit": "µM"}]}, {"smiles": "O=C(/C=C/c1ccc(OCc2ccccc2)cc1)c1c(O)cc(OCc2ccccc2)cc1OCc1ccccc1", "note": "[Compound 8, (E)-2′,4,4′-Tribenzyloxy-6′-hydroxychalcone]", "values": [{"measurement": "Solubility in acetone", "setting": "[1]", "value": "soluble"}, {"measurement": "Solubility in dichloromethane", "setting": "[1]", "value": "soluble"}, {"measurement": "Solubility in methanol", "setting": "[1]", "value": "insoluble"}, {"measurement": "Solubility in water", "setting": "[1]", "value": "insoluble"}, {"measurement": "IC50", "setting": "AChE; [2]", "value": "> 100", "unit": "µM"}]}, {"smiles": "C=CCOc1ccc(C2CC(=O)c3c(O)cc(OCC=C)cc3O2)cc1", "note": "(stereo not drawn) [Compound 6, 4′,7-Diallyloxy-5-hydroxyflavanone]", "values": [{"measurement": "Solubility in acetone", "setting": "[1]", "value": "soluble"}, {"measurement": "Solubility in dichloromethane", "setting": "[1]", "value": "highly soluble"}, {"measurement": "Solubility in methanol", "setting": "[1]", "value": "sparingly soluble"}, {"measurement": "Solubility in water", "setting": "[1]", "value": "insoluble"}, {"measurement": "AChE inhibitory activity (in words)", "setting": "AChE", "value": "negligible biological effects"}, {"measurement": "IC50", "setting": "AChE; [2]", "value": "> 100", "unit": "µM"}]}, {"smiles": "C=CCOc1ccc(/C=C/C(=O)c2c(O)cc(OCC=C)cc2OCC=C)cc1", "note": "[Compound 7, (E)-2′,4,4′-Triallyloxy-6′-hydroxychalcone]", "values": [{"measurement": "Solubility in acetone", "setting": "[1]", "value": "soluble"}, {"measurement": "Solubility in dichloromethane", "setting": "[1]", "value": "highly soluble"}, {"measurement": "Solubility in methanol", "setting": "[1]", "value": "sparingly soluble"}, {"measurement": "Solubility in water", "setting": "[1]", "value": "insoluble"}, {"measurement": "AChE inhibitory activity (in words)", "setting": "AChE", "value": "improved activities over naringenin"}, {"measurement": "IC50", "setting": "AChE; [2]", "value": "< 100 µM and 13 µM"}]}]}
